Measured values from patent US9464064B2, “HCV helicase inhibitors and methods of use thereof” (University of Kansas, priority 2011, dated 2016).

Target: T1, HCV NS3 helicase NS3h_1b(con1) (Hepatitis C virus genotype 1b, UniProt Q9WMX2)
T1 construct: truncated C-terminally His-tagged NS3 proteins lacking the N-terminal protease, called NS3h; His-tag (C); made in house
Test: MBHA screen of NCI mechanistic set library at 20 μM (percent inhibition, compound interference)
Type: biochemical
Settings: compounds at 20 μM; for Inh. (%) (Inhibition): calculated from Equation 1
Outline: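 Molecular beacon-based DNA unwinding assay; compounds screened at 20 μM in triplicate, with DMSO-only negative and 500 nM dT20 positive controls. Fluorescence (ex 643/em 670 nm) was read before and 30 min after adding ATP to 1 mM. Percent inhibition came from the change relative to DMSO controls; interference from pre-ATP fluorescence versus DMSO controls.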

[1] = MBHA with DNA substrate, assay interference calculated with Equation 2
[2] = assay interference calculated with Equation 2 (fluorescence vs DMSO-only controls before ATP)

T1 sequence (Q9WMX2 1192-1657): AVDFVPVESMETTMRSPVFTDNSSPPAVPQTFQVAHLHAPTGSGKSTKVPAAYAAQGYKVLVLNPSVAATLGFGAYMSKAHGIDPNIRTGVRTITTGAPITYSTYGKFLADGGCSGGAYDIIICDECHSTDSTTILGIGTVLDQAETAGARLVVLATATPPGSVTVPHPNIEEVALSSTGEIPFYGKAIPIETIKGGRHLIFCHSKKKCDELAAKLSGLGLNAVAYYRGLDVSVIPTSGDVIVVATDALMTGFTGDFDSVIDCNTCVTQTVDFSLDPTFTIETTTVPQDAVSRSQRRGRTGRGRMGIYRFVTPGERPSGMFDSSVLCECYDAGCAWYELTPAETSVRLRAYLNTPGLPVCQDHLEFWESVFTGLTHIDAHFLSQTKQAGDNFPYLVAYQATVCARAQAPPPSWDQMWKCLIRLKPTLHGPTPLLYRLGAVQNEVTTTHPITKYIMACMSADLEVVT

Compound | Int.* (Ratio) (Interference) [1] | Inh. (%) (Inhibition) (MBHA with DNA substrate) | Inh. (%) (Inhibition) (MBHA with a DNA substrate) | Int.* (Ratio) (Interference) [2]
Cc1ccccc1NC(=O)C(=O)C(c1cnc2ccc([N+](=O)[O-])cc2n1)[N+](=O)[O-] (stereo not drawn) [Compound 644735] | 0.94 | 17.3 |  | 
O=C(Nc1cccc(C(F)(F)F)c1)C(=O)C(C(=O)c1ccc(Cl)c(Cl)c1)C1OC(=O)c2ccccc21 (stereo not drawn) [Compound 644794] | 0.96 | −17.5 |  | 
Clc1ccc(-c2c(C3=NCCCN3)nnn2-c2ccc(Cl)cc2)cc1 [Compound 645033] | 0.96 | −18.4 |  | 
CC(C)OP(=O)(OC(C)C)C(N(C)C)P(=O)(OC(C)C)OC(C)C.[Cl][Sn]([Cl])([Cl])[c]1ccccc1 [Compound 645567] | 1.04 | 2.4 |  | 
Oc1cc(-n2cccn2)c(O)cc1-n1cccn1 [Compound 645987] |  |  | −7.0 | 0.88
CCOC(OC1=C(C#N)CCC1)C(C)[Se]c1ccccc1 (stereo not drawn) [Compound 646189] | 0.92 | −1.0 |  | 
CCOC(OCC)C(CC)[Se]c1ccccc1[N+](=O)[O-] (stereo not drawn) [Compound 646200] |  |  | −3.7 | 1.14
COc1cc(/C=C(\OC(C)=O)c2ccc3c(c2)OCO3)cc(OC)c1OC [Compound 647363] | 0.93 | −17.1 |  | 
CN/N=C(\C)C(CN1CCCCC1)C(C1=C(O)c2ccccc2OC1)c1ccccc1.Cl (stereo not drawn) [Compound 647418] |  |  | −24.7 | 1.00
O=C1Oc2ccccc2C1C/C(=N\Nc1ccccc1)c1ccccc1O (stereo not drawn) [Compound 647613] | 0.91 | 23.5 |  | 
CN(C)[C@H]1CCC2[C@@H]3CCC4C[C@@H](NC(=O)NC(Cc5ccccc5)c5nccs5)CC[C@]4(C)C3CC[C@@]21C (stereo partly drawn) [Compound 647889] | 0.89 | 1.6 |  | 
O=C(C=C1SCCS1)/C=C\c1ccc(Cl)cc1 [Compound 648320] |  |  | −32.6 | 1.08
COc1cc(CC(=O)c2cc3c(cc2-c2ccccc2)OCO3)cc(OC)c1OC [Compound 648419] |  |  | 8.6 | 0.90
COc1cc(/C=C(\C)c2ccc3c(c2)OCO3)cc(OC)c1OC [Compound 648422] | 1.02 | −17.5 |  | 
Cc1nc2c(o1)C(=O)c1ccccc1C2=Nc1ccccc1 [Compound 650573] | 0.86 | −14.3 |  | 
Cc1ccc(S(=O)(=O)N2CCSCCSCCSCCSCC2)cc1 [Compound 650792] | 0.86 | −1.2 |  | 
CCC(=O)OC1CCn2c1nc1c2C(=O)C(C)=C(N2CC2)C1=O (stereo not drawn) [Compound 651079] | 1.05 | −16.7 |  | 
CC1=C(N2CC2)C(=O)c2nc3n(c2C1=O)CCC3OC(=O)CCl (stereo not drawn) [Compound 651080] |  |  | −4.4 | 0.85
COCC(=O)OC1CCn2c1nc1c2C(=O)C(C)=C(NC(C)=O)C1=O (stereo not drawn) [Compound 651084] |  |  | 8.1 | 0.95
COc1ccc(/C=C2/C(=O)N(C(=O)c3ccccc3O)N=C2C)cc1 [Compound 652174] | 0.87 | 33.4 |  | 
OCc1ccc(-c2ccc(-c3ccc(CO)s3)o2)s1 [Compound 652287] |  |  | −5.4 | 0.98
OCCNCN(CNCCO)c1nc(N(CNCCO)CNCCO)nc(N(CNCCO)CNCCO)n1 [Compound 653000] | 0.97 | 1.2 |  | 
Cc1cc(=O)[nH]c(NN2C(Cl)C(=O)C2c2cccc([N+](=O)[O-])c2)n1 (stereo not drawn) [Compound 653010] | 0.88 | 17.5 |  | 
Cc1cc(=O)[nH]c(NN2C(Cl)C(=O)C2c2cccc(Cl)c2)n1 (stereo not drawn) [Compound 653012] | 0.91 | 17.7 |  | 
Cc1cc(=O)[nH]c(NN2C(Cl)C(=O)C2c2c(O)ccc3ccccc23)n1 (stereo not drawn) [Compound 653016] |  |  | −40.6 | 1.02
C[CH2][Ge]([CH2]C)([CH2]C)[O]C(=O)CCC(=O)[O][Ge]([CH2]C)([CH2]C)[CH2]C [Compound 653558] |  |  | −3.1 | 0.98
Cc1cc(NC(=O)NC(=O)c2ccccc2NC(=O)CN)ccc1Oc1ncc(Br)cn1.Cl [Compound 654259] | 0.98 | 1.1 |  | 

Compound | Int.* (Ratio) (Interference) [1] | Inh. (%) (Inhibition) (MBHA with DNA substrate) | Inh. (%) (Inhibition) (MBHA with a DNA substrate) | Int.* (Ratio) (Interference) [2]
COC(=O)c1ccc(NCc2cc(O)ccc2O)cc1 [Compound 654705] |  |  | −6.0 | 1.02
CCN1CCC(O)(/C=C/c2ccc(C)cc2)C(C(=O)/C=C/c2ccc(C)cc2)C1.Cl (stereo not drawn) [Compound 657298] | 1.01 | −17.3 |  | 
COc1ccccc1/C=C1\Sc2scc(-c3cccc([N+](=O)[O-])c3)[n+]2C1=O [Compound 657446] |  |  | −21.5 | 1.00
Cc1cc(O)c(/C=N/C(N)=S)c(=O)o1 [Compound 657449] |  |  | −25.4 | 1.00
Oc1[nH]c2ccccc2c1N=Nc1nc(-c2ccc(Br)cc2)cs1 [Compound 657456] |  |  | −6.1 | 0.85
COc1cc(/C=C2\S/C(=N/Nc3nc(-c4ccc(Br)cc4)cs3)NC2=O)cc(OC)c1OC [Compound 657457] | 1.06 | −14.5 |  | 
O=C1/C(=C/c2ccc([N+](=O)[O-])cc2)Sc2scc(-c3cccc([N+](=O)[O-])c3)[n+]21.[Cl-] [Compound 657598] | 0.94 | −14.8 |  | 
CCCn1c(=O)c2ccccc2[n+]2c(-c3ccc([N+](=O)[O-])cc3)csc12.[Br-] [Compound 657603] | 0.94 | −15.1 |  | 
Cc1cccc(C)c1NC(=O)C(=O)C(c1ccccc1Cl)S(=O)(=O)Cc1ccccc1Cl (stereo not drawn) [Compound 657722] |  |  | 9.1 | 0.93
COc1ccc(CCN(C)CCCC(C#N)(c2ccc(OC)c(OC)c2)C(C)C)cc1OC.Cl (stereo not drawn) [Compound 657799] | 0.98 | 5.8 |  | 
O=[N+]([O-])c1ccc2c(c1)/C(=N/N=C1c3ccccc3Cc3ccccc31)c1cc([N+](=O)[O-])cc([N+](=O)[O-])c1-2 [Compound 658139] | 1.06 | −14.6 |  | 
O=C1C=C(N2CCNCC2)C(=O)c2c(O)ccc(O)c21 [Compound 658144] |  |  | −5.5 | 0.78
CC(=O)c1sc2[n+](c1C)C(=O)/C(=C\c1ccccc1Cl)S2 [Compound 658285] | 0.90 | 3.1 |  | 
CCOC(=O)c1sc2[n+](c1C)C(=O)/C(=C/c1ccc([N+](=O)[O-])cc1)S2.[Cl-] [Compound 658293] |  |  | −22.4 | 1.08
CCn1c(O)c(C=Nc2ccccc2)s/c1=N/Nc1ncc(CC(=O)Nc2ccccc2C)s1 [Compound 658350] | 1.00 | −18.3 |  | 
CN(C)CCCCN1CCc2c(n(C)c3ccccc23)C1=O [Compound 658388] | 1.09 | −18.7 |  | 
CC(=O)N=C1N(/C=C2\C(=O)Oc3ccccc3C2=O)C(=O)/C(=C/c2ccccc2Cl)N1C [Compound 658494] | 0.95 | 6.7 |  | 
COc1ccc(NC(=O)C(=O)/C=C(\O)c2ccccc2)cc1 [Compound 658709] | 0.90 | −7.9 |  | 
O=C(CC(O)(C(F)(F)F)C(F)(F)Cl)CC(O)(C(F)(F)F)C(F)(F)Cl (stereo not drawn) [Compound 659174] |  |  | 8.7 | 0.92
CN=c1sc2c(n1C)C(=O)c1ccccc1C2=O [Compound 659501] |  |  | −6.6 | 1.06
Cl.O=C1C=CC(=O)c2c(O)c(N3CCN(CCOCCO)CC3)c(Br)c(O)c21 [Compound 659999] | 0.44 | 6.1 |  | 
Cc1nn(-c2ccccc2)c2c1CC(=O)Nc1ccccc1-2 [Compound 662553] |  |  | −4.6 | 1.02
C=C(Cl)C(Cl)(CBr)CCC(Br)C(C)(C)Cl (stereo not drawn) [Compound 662825] | 0.93 | 14.5 |  | 
COc1ccc(NC2=NCCO2)c2c1CCCC2 [Compound 663996] | 1.08 | −2.7 |  | 
O=C1C(C(O)(C(F)(F)F)C(F)(F)F)CCC1C(O)(C(F)(F)F)C(F)(F)F (stereo not drawn) [Compound 664181] | 0.84 | 14.5 |  | 
CN(NC1=NCCO1)c1ccc2ccccc2c1 [Compound 664286] |  |  | −22.3 | 1.18
CC(Cc1ccccc1)NC1=NCCO1 (stereo not drawn) [Compound 664298] |  |  | 9.8 | 0.96
